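Briefly, cells in 96-well plates were exposed to five compound concentrations for 48 h, and endpoints were estimated by linear interpolation. TGI is the concentration that stops growth completely.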
Key:
Assay in all cases: growth of human tumour cells (NCI), 48 h
[1] = tested on: MALME-3M melanoma
[2] = tested on: COLO 205 colon
[3] = tested on: PC-3 prostate
[4] = tested on: UO-31 renal
[5] = tested on: HT29 colon
[6] = tested on: UACC-62 melanoma
[7] = tested on: HOP-92 NSCLC
[8] = tested on: HS 578T breast
[9] = tested on: K-562 leukemia
[10] = tested on: RPMI-8226 leukemia
[11] = tested on: SF-268 CNS
[12] = tested on: U251 CNS
[13] = tested on: MCF7 breast
[14] = tested on: HL-60(TB) leukemia
[15] = tested on: ACHN renal
[16] = tested on: MOLT-4 leukemia
[17] = tested on: A498 renal
[18] = tested on: CCRF-CEM leukemia
[19] = tested on: SNB-75 CNS
[20] = tested on: KM12 colon

SMILES | TGI [1] [µM] | TGI [2] [µM] | TGI [3] [µM] | TGI [4] [µM] | TGI [5] [µM] | TGI [6] [µM] | TGI [7] [µM] | TGI [8] [µM] | TGI [9] [µM] | TGI [10] [µM] | TGI [11] [µM] | TGI [12] [µM] | TGI [13] [µM] | TGI [14] [µM] | TGI [15] [µM] | TGI [16] [µM] | TGI [17] [µM] | TGI [18] [µM] | TGI [19] [µM] | TGI [20] [µM]
C=C1CC(C)(COc2cc(=O)oc3ccccc23)OC1=O (stereo not given) | 6.6 | 5.81 | 17.5 | 24.8 | 13.3 | 8.65 | 3.54 | 30.8 | 6.45 | 4.18 | 40.5 | 28.9 | 4.28 | 4.83 | 15.8 | 7.15 | 8.74 | 5.08 | 21.3 | 27.3
[N-]=[N+]=CC(=O)OCC1NC(=O)C(COC(=O)C=[N+]=[N-])NC1=O (stereo not given) | > 100 | > 100 | > 100 | > 100 | > 100 | > 100 | > 100 | > 100 | > 100 | > 100 | > 100 | > 100 | > 100 | > 100 | > 100 | > 100 | > 100 | > 100 | > 100 | > 100
CCC(c1ccc(OC)cc1)C1NC(=S)NC1=O (stereo not given) | > 50 | > 50 | > 50 | > 50 | > 50 |  | > 50 | > 50 | > 50 | > 50 | > 50 | > 50 | > 50 | 47.3 | > 50 | > 50 | > 50 | > 50 | > 50 | > 50
Cc1cccc2c1c(=O)c1c(O)cc3c(c1n2C)C=CC(C)(C)O3 | > 100 | > 100 | > 100 |  | > 100 | > 100 | > 100 | > 100 | > 100 | > 100 | > 100 | > 100 | > 100 | > 100 | > 100 | > 100 | > 100 | > 100 | > 100 | > 100
COC(=O)[C@H](COC(C)(C)C)NC(=O)N[C@H](C)c1ccccc1 |  | > 100 | > 100 | > 100 | > 100 | > 100 | > 100 | > 100 | > 100 | > 100 | > 100 | > 100 | > 100 | > 100 | > 100 | > 100 | > 100 | > 100 | > 100 | > 100
Cc1cccc(N=C/C=C(\Cl)c2ccc3ccccc3c2)c1 | 36.4 | 45.8 | 53.1 | 34.4 | > 62.7 | 32.5 | > 62.3 | > 96.7 | 40 | 29 | > 79.4 | 31 | > 95.9 | 38.5 | 30.7 | 8.19 | > 100 |  | > 58.2 | 41
Cn1nc(-c2ccccc2)c2c(-c3ccccc3)c3cc(Cl)ccc3nc21 | > 100 |  | > 100 | > 100 | > 100 | > 100 | > 25 | > 100 | > 100 | > 100 | > 100 | > 100 | > 100 | > 100 | > 100 | > 100 | > 100 | > 100 | > 100 | > 100
O=C1CCCCC1C(O)(C(F)(F)F)C(F)(F)Cl (stereo not given) | > 10 | > 10 | > 10 |  | > 10 | > 10 | > 10 | > 10 | > 10 | > 10 | > 10 | > 10 | > 10 | > 10 | > 10 | > 10 | > 10 | > 10 | > 10 | > 10
Cc1c(-c2nc(N)c(C#N)c(N)c2C#N)c(=O)oc2ccccc12 | > 100 | > 100 | > 100 | > 100 | > 100 | > 100 | > 100 | > 100 | > 100 | 62.4 | > 100 | > 100 | > 100 | > 100 | > 100 |  | > 100 | > 100 | > 100 | > 100
NC(Cc1ccccc1)c1nn[nH]n1 (stereo not given) | > 100 | > 100 | > 100 | > 100 | > 100 | > 100 | > 100 | > 100 | > 100 | > 100 | > 100 | > 100 | > 100 | > 100 | > 100 |  | > 100 | > 100 | > 100 | > 100
CC(C)CC(NC=O)C(=O)NC(Cc1ccccc1)NC(=O)CNC(=O)C(C)NC(=O)C(N)Cc1ccc(O)cc1 (stereo not given) |  | > 100 | > 100 | > 100 | > 100 | > 100 | > 100 | > 100 | > 100 | > 100 | > 100 | > 100 | > 100 | > 100 | > 100 | > 100 | > 100 |  | > 100 | > 100
